Laboratory results reported in patent US9073880B2, “2-(2-phenylethenyl) 1,3-benzodiazepine derivatives useful for the treatment of cancer” (Yissum Research Development Company of the Hebrew …, priority 2010, dated 2015).

Tested on: human melanoma A375 cells
Assay: Cell proliferation, A375 (Example 4)
Assay type: cell-based
Conditions: A-375, compound in 2-hydroxypropyl-β-cyclodextrin
Experimental: Human ovary cancer A2780 cells lines were seeded at a density of 5000 cells/well, human melanoma A375 cells were plated at a density of 2,500 cells/well, human colon carcinoma HCT15 cells were plated at a density of 3,000 cells/well, human prostate carcinoma PC3 cells were plated at a density of 1,500 cells/well, human breast carcinoma MCF7 cells were plated at a density of 5,000 cells/well, human breast carcinoma MDA MB 468 cells were plated at a density of 6,000 cells/well, human myeloma U266, RPMI8226 and CAG cells were plated at a density of 10,000 cells/well. All cells were plated in 96-well plates in 90 μl growth medium containing 10% FCS, 100 units/ml penicillin and 100 μg/ml streptomycin. Compound 3 was added a day later in […] of 1% DMSO in DDW to obtain final concentrations of 0, 0.1, 0.3, 1, 3, and 10 μM. The final concentration of DMSO (0.1% DMSO) was kept constant in all samples. […] The optical density values were read at 630 nm in ELISA plate reader. Non-adhered cells were exposed to WST-1 reagent for 5 hours following 72 hours treatment with the inhibitors, and optical density values were read at 630 nm in ELISA plate reader. The data was analyzed in Microsoft Excel, using the vehicle control as 100% proliferation. […]

Row | SMILES | IC50 [nM]
1 | O=c1c(O)cc2cnc(/C=C/c3cc(O)c(O)c(Br)c3)sc-2c1O [Compound 3] | 500
2 | O=c1c(O)cc2cnc(/C=C/c3ccc(O)c(O)c3Br)sc-2c1O [Compound 5] | 400
